In series [1] the test system is S. aureus. The series is described as follows: colony phenotype on agar plates. Type of series: cell-based, Staphylococcus aureus. From the text: L-161, 982 inhibits activities associated with the electron transport chain including ATP production. In addition to the sulfonamide group, the chemical structure of L 161, 982 contains a urea group connected to two aryl groups (diarylurea) (FIG. 11). Urea derivatives are commonly used as herbicides, interfering with electron transport (17). […] SCVs typically lack a functional electron transport chain and cannot produce virulence factors such as hemolysins or the antioxidant pigment staphyloxanthin [reviewed in (19)]. […] These defects are all indicative of interruption of electron transport as carotenoid formation as well as toxin production is dependent on an active electron transport (18, 20, 21). During aerobic respiration, the force required for driving ATP synthesis requires a transmembrane electrical potential (membrane potential), which is generated by the electron transport chain.

For series [2] the following is noted: 10 mg/kg body weight; cited from earlier work.
In series [3] the test system is S. aureus strain 43300. The series is described as follows: staphyloxanthin assay. The format is cell-based, Staphylococcus aureus. The procedure: Pigment (staphyloxanthin) levels were measured from cultures grown in Mueller-Hinton broth+/−L-161, 982 at 37° C. for 24 h. A) Macroscopic analysis of S. aureus pigment production. B) Pigment was extracted in methanol and optical density measured at 450 nm. Data shown are representative of two independent experiments. *** p<0.001 control vs. drug-treated.
Strains and growth conditions. The methicillin-resistant S. aureus strain NRS383 was obtained from the Network on Antimicrobial Resistance in S. aureus (NARSA) data bank. As NRS383 has little or no hemolytic activity or pigmentation, S. aureus strain 43300 (ATCC) was used for the hemolysis and staphyloxanthin assays. Frozen stocks were obtained at −80° C. and streaked onto trypticase soy agar (TSA) plates at 37° C. prior to use. A single colony was transferred to 10 ml of trypticase soy broth (TSB) and shaken at 37° C. overnight. On the following day, the overnight culture was diluted 1:100 in fresh growth medium and shaken at 37° C. for 3 h to obtain cells in mid-log growth phase.
Staphyloxanthin Assay. S. aureus was diluted 100-fold in 50 ml of TSB containing 50 or 100 μg/ml of L-161,982 and cultured shaking at 37° C. for 48 h. Control cultures were grown in broth alone. […] Cells from each culture were counted and normalized. […] Optical densities of supernatants were measured at 465 nm using a spectrophotometer.

Series [4] has as its system S. aureus. Nature of the series: cell membrane integrity by viability (Live/Dead) staining. The format is cell-based, Staphylococcus aureus. The conditions noted are these: 6 h incubation. From the text:
To determine the mechanism of action of L-161, 982 against growth of Gram-positive bacteria, we first looked at its effect on cell membrane integrity using viability staining. […] A previous study had reported that the inhibitory effect of L-161, 982 on the proliferation of skeletal muscle myoblasts was due to its ability to induce production of high levels of intracellular reactive oxygen species (ROS) that could be reversed by co-treatment with the antioxidants, N-acetyl cysteine or sodium ascorbate (25).
Although the prostanoid pathway is not conserved in prokaryotes, we questioned whether L-161, 982 inhibited S. aureus growth by increasing intracellular ROS production. […] Future studies will examine other possible mechanisms of action.

In series [5] the test system is S. aureus NRS383. The series is described as follows: growth inhibition kinetics. Type of series: cell-based, Staphylococcus aureus. Here is the method:
Growth of S. aureus NRS383 was monitored for up to 24 h in medium alone or supplemented with DMSO or 50 μg/ml L-161, 982. After 6 h of coincubation, fresh L-161, 982 was added to growth medium (*). Data shown are representative of three independent experiments.
We next investigated the kinetics of growth inhibition kinetics by L-161, 982 against S. aureus and drug stability. The minimum inhibitory concentration (MIC) of L-161, 982 against planktonic S. aureus was 50 μg/ml while the […] was 100 μg/ml. […] To address whether the loss of inhibition was due to drug degradation over time (half-life), or to adaptation of S. aureus cells to L-161, 982, fresh L-161, 982 (50 μg/ml) was added during the co-incubation.

Series [6] relates to E. coli. Nature of the series: spectrum of activity, bacterial growth. The format is cell-based, Escherichia coli. The conditions noted are these: 50 μg/ml, 6 h. Here is the method:
(§1) Bacterial growth was monitored for 6 h in medium alone or supplemented with 50 μg/ml of L-161, 982. Data shown is representative of three independent experiments.
Strains and growth conditions. The methicillin-resistant S. aureus strain NRS383 used in all experiments was obtained from the Network on Antimicrobial Resistance in S. aureus (NARSA) data bank. NRS383 is positive for the toxic shock syndrome toxin (tst) and 6-toxin genes. SJ-MRSA 6 and SJ-SA5 are methicillin-resistant (MRSA) and methicillin-sensitive (MSSA) clinical S. aureus strains respectively isolated from a patient's catheter. Other bacterial species used in this study include Escherichia coli (ATCC 25922, clinical isolate), S. epidermidis (ATCC 12228), Klebsiella pneumonia (ATCC 43816), Enterococcus faecalis (ATCC 51299, clinical isolate), and Streptococcus mutans (UA159, 12). S. mutans strain was maintained in brain heart infusion (BHI) broth while the other bacterial species were maintained in Luria-Bertani broth. Frozen stocks were obtained at −80° C. and streaked onto agar plates at 37° C. prior to use. A single colony was transferred to 10 ml of culture broth and shaken at 37° C. overnight. On the following day, the overnight culture was diluted 1:100 in fresh growth medium and shaken at 37° C. for 3 h to obtain cells in mid-log growth phase. S. mutans cultures were grown without agitation in the presence of 5% CO2. […]

The test system of series [7] is mouse primary myoblasts. The conditions noted are these: cited from earlier work.
In series [8] the test system is S. epidermidis. Nature of the series: spectrum of activity, bacterial growth. The conditions noted are these: 50 μg/ml, 6 h. The format is cell-based. The procedure:
as §1
(§2) Strains and growth conditions. The methicillin-resistant S. aureus strain NRS383 used in all experiments was obtained from the Network on Antimicrobial Resistance in S. aureus (NARSA) data bank. NRS383 is positive for the toxic shock syndrome toxin (tst) and 6-toxin genes. SJ-MRSA 6 and SJ-SA5 are methicillin-resistant (MRSA) and methicillin-sensitive (MSSA) clinical S. aureus strains respectively isolated from a patient's catheter. Other bacterial species used in this study include Escherichia coli (ATCC 25922, clinical isolate), S. epidermidis (ATCC 12228), Klebsiella pneumonia (ATCC 43816), Enterococcus faecalis (ATCC 51299, clinical isolate), and Streptococcus mutans (UA159, 12). S. mutans strain was maintained in brain heart infusion (BHI) broth while the other bacterial species were maintained in Luria-Bertani broth. Frozen stocks were obtained at −80° C. and streaked onto agar plates at 37° C. prior to use. A single colony was transferred to 10 ml of culture broth and shaken at 37° C. overnight. On the following day, the overnight culture was diluted 1:100 in fresh growth medium and shaken at 37° C. for 3 h to obtain cells in mid-log growth phase. S. mutans cultures were grown without agitation in the presence of 5% CO2.
(§3) The spectrum of activity of L-161, 982 was investigated by testing several Gram-positive and Gram-negative bacteria.

Series [9] deals with Streptococcus mutans. The series is described as follows: spectrum of activity, bacterial growth. Type of series: cell-based. The conditions noted are these: 50 μg/ml, 6 h. Here is the method:
as §1, §2, §3

Series [10] deals with K. pneumoniae. Nature of the series: spectrum of activity, bacterial growth. The format is cell-based. The conditions noted are these: 50 μg/ml, 6 h. Here is the method:
as §1, §2, §3

For series [11], the system named is E. faecium. The series is described as follows: spectrum of activity, bacterial growth. The conditions noted are these: 50 μg/ml, 6 h. Type of series: cell-based. Here is the method:
as §1, §2, §3

In the case of `CCCCc1nn(-c2ccccc2C(F)(F)F)c(=O)n1Cc1ccc(-c2ccccc2S(=O)(=O)NC(=O)c2sccc2C)cc1` [L-161, 982, N-[[4′-[[3-Butyl-1,5-dihydro-5-oxo-1-[2-(trifluoromethyl)phenyl]-4H-1,2,4-triazol-4-yl]methyl][1,1′-biphenyl]-2-yl]sulfonyl]-3-methyl-2-thiophenecarboxamide], the colony phenotype entry in series [1] is listed as “grew as small colonies”. Moreover, the toxic effects result in series [2] was “no apparent toxic effects”. Further, the “pigmentation (staphyloxanthin)” value in series [3] was “loss of yellow pigmentation”. The cell membrane damage result in series [4] was “no evidence of cell membrane damaged”. The “inhibition when fresh L-161, 982 is added during co-incubation” value in [5] (50 μg/ml, fresh 50 μg/ml after 6 h) is reported as “maintained inhibition over a 24 h period”. Also, in series [5] (at the MIC of 50 μg/ml), the “duration of inhibitory effect on S. aureus” value was no more than 8 h. The growth inhibitory activity entry was “No inhibitory effects” in series [6]; “restricted to Gram-positive bacteria that included S. epidermidis and Streptococcus mutans” in series [8]; “restricted to Gram-positive bacteria that included S. epidermidis and Streptococcus mutans” in [9]; “No inhibitory effects” in series [10]; “No inhibitory effects” in series [11]. In series [7], the “proliferation of mouse primary myoblasts” value was “inhibit proliferation”.

The values above are taken from patent US20200352912A1, “ANTIMICROBIAL COMPOSITIONS AND METHODS OF USING THE SAME” (The Board Of Supervisors Of Louisiana State University And …, priority 2018, published 2020).
